Data published in patent publication US5416087A, “Bis-benzo, cyclohepta piperidylidene, piperidine and piperazine compounds, compositions and methods of use” (priority 1993, dated 1995).

Key:
[1] = test system: PAF (agonist bronchospasm); experiment: PAF-induced bronchospasm in guinea pigs; type: in vivo, Male Hartley guinea pigs; settings: dose 10 mg/kg oral, PAF 0.4 μg/kg i.v.
Method: (§1) Male Hartley guinea pigs (450-550 g) were obtained from Charles River Breeding Laboratories. The animals were fasted overnight and the following day were anesthetized with 0.9 ml/kg i.p. of dialurethane (containing 0.1 g/ml diallylbarbituric acid, 0.4 g/ml ethylurea and 0.4 g/ml urethane). The left jugular vein was cannulated for the administration of compounds. The trachea was cannulated and the animals were ventilated by a rodent respirator at 55 strokes/min. with a stroke volume of 4 ml. A side arm to the tracheal cannula was connected to a pressure transducer to obtain a continuous measure of inflation pressure. Bronchoconstriction was measured as the percent increase in inflation pressure that peaked within 5 min. after challenge with spasmogen. […] Each animal was challenged with only a single spasmogen. The effect of a compound on the bronchospasm is expressed as a percent inhibition of the increase in inflation pressure compared to the increase in a control group.

[2] = test system: Histamine (agonist bronchospasm); experiment: Histamine-induced bronchospasm in guinea pigs; type: in vivo, Male Hartley guinea pigs; settings: dose 1 mg/kg oral, histamine 10 ug/kg i.v.
Method: as §1

[3] = test system: PAF-induced platelet aggregation; experiment: Platelet aggregation assay (PAF-induced aggregation of human platelet-rich plasma); type: cell-based; settings: 2 min, human PRP, PAF 1-5×10^-8 M, 37° C., 2 min. incubation, read-out: PAF Antagonism (in vitro) IC50
Method: Platelet-activating factor (PAF) causes aggregation of platelets by a receptor-mediated mechanism. Therefore, PAF-induced platelet aggregation provides a simple and convenient assay to screen compounds for PAF antagonism.
Blood was centrifuged at 110×g for 15 min. and the supernatant platelet-rich plasma (PRP) carefully transferred into a polypropylene tube. Platelet-poor-plasma (PPP) was prepared by centrifuging PRP at 12,000×g for 2 min. (Beckman Microfuge B). PRP was used within 3 hr. of drawing the blood.
PAF was dissolved in chloroform:methanol (1:1, v/v) at a concentration of 2 mg/ml and stored at -70° C. An aliquot of this solution was transferred to a polypropylene tube and dried under a flow of nitrogen gas. […] This stock solution was further diluted to appropriate concentrations in Hepes-saline-BSA buffer. Collagen (Sigma) and adenosine diphosphate (ADP) (Sigma) were purchased as solutions. Test compounds were initially dissolved in dimethyl sulfoxide (DMSO) at a concentration of 50 mM and then further diluted in Hepes-saline-BSA buffer to achieve appropriate concentrations.
When an aggregating agent such as PAF is added to PRP, platelets aggregate. An aggregometer quantifies this aggregation by measuring and comparing light (infra-red) transmission through PPP and PRP. […]

IC50 [3] [nM] | SMILES | PAF Agonist Bronchospasm (in vivo) - oral, % Inhibition [1] [%] | Histamine Agonist Bronchospasm (in vivo) - oral, % Inhibition [2] [%]
 | CCOC(=O)N1CCC(=C2c3ccc(Cl)cc3CCc3cccnc32)CC1 [Compound 1] | < 50 | > 50
2500 | O=C(c1cc[n+]([O-])cc1)N1CCN(C2c3ccccc3-c3ccccc32)CC1 [Example 8] |  | 
